Laboratory results: patent US11352350B2, “IRAK degraders and uses thereof” (Kymera Therapeutics, Inc., priority 2018, dated 2022)
Read-outs that look alike come from different tables or passages of the source.

Experiments:
IRAK4 = IRAK4 (Homo sapiens (Human), UniProt Q9NWZ3); experiment: IRAK4 MSD degradation in OCI-LY10; format: cell-based
Outline: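 OCI-LY10 cells treated with 8-point 1:3 dilutions (top 1 to 10 μM final) for 4 to 24 h at 37° C. Lysate IRAK4 measured by MSD sandwich immunoassay (2H9 capture, Y279 detection, SULFO-TAG anti-rabbit). DC50 from three-parameter logistic fit.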

OCI-LY10 = experiment: CTG Cell Viability Assay - OCI-LY10; format: cell-based, human; conditions: Homo sapiens, OCI-Ly10, 96 h, OCI-LY10, 4 days; read-out: CTG Cell Viability Assay - OCI-LY10: Average external-IC50
Outline: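 OCI-LY10 cells exposed to 9-dose, 1:3 dilutions from 10 μM top (0.2% DMSO) for 4 days at 37° C, 5% CO2. Viability by CellTiter-Glo luminescence; IC50 from three-parameter logistic fit.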

[1] = OCI-LY10, 4 hrs, MSD, read-out: IRAK4 MSD degradation in OCI-LY10 at 4 hrs: Average external-Abs DC50
[2] = OCI-LY10, 4 hrs, read-out: IRAK4 MSD degradation in OCI-LY10 at 4 hrs: DC50
[3] = OCI-LY10, 24 hrs, read-out: IRAK4 MSD degradation in OCI-LY10 at 24 hrs: DC50
[4] = OCI-LY10, 24 hrs, MSD, read-out: IRAK4 MSD degradation in OCI-LY10 at 24 hrs: Average external-Abs DC50

IRAK4, sequence (Q9NWZ3 whole entry): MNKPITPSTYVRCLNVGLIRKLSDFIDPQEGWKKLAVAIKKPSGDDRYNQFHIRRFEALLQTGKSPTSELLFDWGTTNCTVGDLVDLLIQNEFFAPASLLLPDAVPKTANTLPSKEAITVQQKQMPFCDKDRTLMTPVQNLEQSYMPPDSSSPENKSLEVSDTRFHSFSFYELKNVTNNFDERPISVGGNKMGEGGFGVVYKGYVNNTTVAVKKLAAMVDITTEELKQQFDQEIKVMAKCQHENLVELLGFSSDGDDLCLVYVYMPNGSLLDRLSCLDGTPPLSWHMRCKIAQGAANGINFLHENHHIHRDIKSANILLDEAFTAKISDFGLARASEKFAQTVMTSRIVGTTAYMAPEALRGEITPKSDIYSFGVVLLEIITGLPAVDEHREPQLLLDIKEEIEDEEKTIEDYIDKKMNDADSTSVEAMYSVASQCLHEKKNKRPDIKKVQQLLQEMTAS

SMILES	DC50 (IRAK4; [1]) [nM]	IC50 (OCI-LY10) [nM]	DC50 (IRAK4; [2]) [nM]	DC50 (IRAK4; [3]) [nM]	DC50 (IRAK4; [4]) [nM]
CC([C@H]1CC[C@H](n2cc(NC(=O)c3coc(-c4ccnc(NCC5CC5)c4)n3)c(C(F)F)n2)CC1)N1CCC(OCCCc2cccc3c2n(C)c(=O)n3C2CCC(=O)NC2=O)CC1 (stereo partly drawn) [I-301, 2-[2-(Cyclopropylmethylamino)-4-pyridyl]-N-[3-(difluoromethyl)-1-[4-[1-[4-[3-[1-(2,6-dioxo-3-piperidyl)-3-methyl-2-oxo-benzimidazol-4-yl]propoxy]-1-piperidyl]ethyl]cyclohexyl]pyrazol-4-yl] oxazole-4-carboxamide]	10 to 100	< 50			
CN(C(=O)c1cnn2ccc(N3CCOCC3)nc12)c1cn([C@H]2CC[C@H](CN3CCC(OCCCNc4cccc5c4C(=O)N(C4CCC(=O)NC4=O)C5=O)CC3)CC2)nc1C(F)F (stereo partly drawn) [I-501]		50 to 100	> 1000	> 1000	
Cn1c(=O)n(C2CCC(=O)NC2=O)c2ccc(CN3CCN(CCO[C@H]4C[C@H](N(C)C[C@H]5CC[C@H](n6cc(NC(=O)c7coc(-c8ccnc(NCC9CC9)c8)n7)c(C(F)F)n6)CC5)C4)CC3)cc21 (stereo partly drawn) [I-252]	< 10	100 to 500			
CC[C@@H]1CC(=O)N[C@@H]1COc1ncc(C#CC2CCN(CCCOCCCc3cccc4c3n(C)c(=O)n4C3CCC(=O)NC3=O)CC2)c2cc(C(N)=O)c(OC)cc12 (stereo partly drawn) [I-203]	> 1000	> 1000			100 to 1000
Cn1c(=O)n(C2CCC(=O)NC2=O)c2cccc(CCCOCCCN3CCN([C@H]4CC[C@H](Nc5ncnc6ccc(CC#N)cc56)CC4)CC3)c21 (stereo partly drawn) [I-269]	> 1000	> 1000			> 1000
CN(CCN1CCO[C@@H](CNc2cccc3c2C(=O)N(C2CCC(=O)NC2=O)C3=O)C1)C[C@H]1CC[C@H](n2cc(NC(=O)c3cnn4ccc(N5C[C@H]6C[C@@H]5CO6)nc34)c(C(F)F)n2)CC1 (stereo partly drawn) [I-500]		50 to 100	100 to 1000	10 to 100	
CN1C(=O)CCC(N2C(=O)c3cccc(NCCCOC4CCN(C[C@H]5CC[C@H](n6cc(NC(=O)c7cnn8ccc(N9CCOCC9)nc78)c(C(F)F)n6)CC5)CC4)c3C2=O)C1=O (stereo partly drawn) [I-368]	> 1000	> 1000			
CN[C@@H](C)C(=O)N[C@H](C(=O)N1Cc2cc(OCCOCCOCCNC[C@H]3CC[C@H](n4cc(NC(=O)c5coc(-c6ccnc(NCC7CC7)c6)n5)c(C(F)F)n4)CC3)ccc2C[C@H]1C(=O)N[C@@H]1CCCc2ccccc21)C(C)(C)C [I-161]	> 1000	> 1000			> 1000
Cn1c(=O)n(C2CCC(=O)NC2=O)c2cccc(CCCOC3CCN(C[C@H]4CC[C@H](n5cc(NC(=O)c6cnn7ccc(N8C(=O)N[C@@H]9[C@H]8CCCC9(F)F)nc67)c(C(F)F)n5)CC4)CC3)c21 (stereo partly drawn) [I-291]	10 to 100	< 50			10 to 100
O=C1CCC(N2C(=O)c3cccc(NCCc4ccc(C5CCN(C[C@H]6CC[C@H](n7cc(NC(=O)c8cnn9ccc(N%10C[C@H]%11C[C@@H]%10CO%11)nc89)c(C(F)F)n7)CC6)CC5)cc4)c3C2=O)C(=O)N1 (stereo partly drawn) [I-362]	100 to 1000	500 to 1000			10 to 100
O=C1CCC(N2C(=O)c3cccc(NCCCOCCCOC[C@H]4CC[C@H](n5cc(NC(=O)c6cnn7ccc(N8C[C@H]9C[C@@H]8CO9)nc67)c(C(F)F)n5)CC4)c3C2=O)C(=O)N1 (stereo partly drawn) [I-363]	> 1000	> 1000			
CN(CCOCCOCCOC12CC3CC(CC(C3)C1)C2)C[C@H]1CC[C@H](n2cc(NC(=O)c3cnn4ccc(N5CCNCC5)nc34)c(C(F)F)n2)CC1 [I-175]	> 1000	> 1000			> 1000
N#CCc1ccc2c(NC3CCC(N4CCN(C(=O)COCCOCCOCCNc5cccc6c5C(=O)N(C5CCC(=O)NC5=O)C6=O)CC4)CC3)ncnc2c1 (stereo not drawn) [I-51]	> 1000	> 1000			
Cn1c(=O)n(C2CCC(=O)NC2=O)c2cccc(CCCOCC3CCN(C[C@H]4CC[C@H](n5cc(NC(=O)c6cnn7ccc(N8CCNCC8)nc67)c(C(F)F)n5)CC4)CC3)c21 (stereo partly drawn) [I-164]	< 10	> 1000			
